The subject of this experiment is Mycobacterium tuberculosis. Nature of the experiment: Antimycobacterial activity against Mycobacterium tuberculosis H37Rv. It counts as functional. To be noted: for MIC: Mycobacterium tuberculosis, H37Rv.

In brackets after ≈: the same amount, converted by molar mass.

As usually defined, the MIC is the smallest concentration in the dilution series that meets the test's criterion for growth inhibition. `CC(C)=CCC[C@H](C)[C@H]1CC[C@H](C)c2c1cc(C)c1ncoc21`: the “inhibition (INH)” value amounted to 66% and 12.5 µg/mL (≈ 40.1 µM) was the least that counted as inhibitory (MIC).

Regarding `CC(C)=C[C@@H]1C[C@H](C)[C@H]2CC[C@H](C)c3c2c1c(C)c1ncoc31` [PSEUDOPTEROXAZOLE], the “inhibition (INH)” value is 97% and the minimal inhibitory concentration (MIC) was 12.5 µg/mL (≈ 40.4 µM).

As to `CCCCCc1nc2c(C)c3c4c(c2o1)[C@@H](C)CC[C@@H]4[C@@H](C)C[C@H]3C=C(C)C` [HOMOPSEUDOPTEROXAZOLE], the “inhibition (INH)” value stood at 80% and the minimum inhibitory concentration (MIC) is 12.5 µg/mL (≈ 32.9 µM).

For the origin of these results see ChEMBL document CHEMBL1146539, “Homopseudopteroxazole, a new antimycobacterial diterpene alkaloid from Pseudopterogorgia elisabethae” (2003).
